Assay results as given in ChEMBL document CHEMBL1201862, “PubChem BioAssay data set” (2004).
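96-well plates; 48 h exposure; 5 concentrations. Endpoints by linear interpolation between flanking doses. Not reached: highest tested concentration assigned. GI50 is the concentration that inhibits growth by half.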 Activity calls are given as the source filed them. No stated cut-off is given here; in the data, active = GI50 up to about 1.1 µM and inactive = higher.

Experiments:
Assay in all cases: NCI tumour cell line growth inhibition, 48 h
RPMI-8226 = tested on: RPMI-8226
Malme-3M = tested on: Malme-3M
UACC-257 = tested on: UACC-257
HL-60 = tested on: HL-60
SW-620 = tested on: SW-620
SK-MEL-5 = tested on: SK-MEL-5
SNB-75 = tested on: SNB-75
OVCAR-3 = tested on: OVCAR-3
NCI-H522 = tested on: NCI-H522
CCRF-CEM = tested on: CCRF-CEM
ACHN = tested on: ACHN
SR = tested on: SR
M14 = tested on: M14
OVCAR-5 = tested on: OVCAR-5
NCI-H23 = tested on: NCI-H23
HOP-92 = tested on: HOP-92
SF-295 = tested on: SF-295

| Compound | GI50 (RPMI-8226) | GI50 (Malme-3M) | GI50 (UACC-257) | GI50 (HL-60) | GI50 (SW-620) | GI50 (SK-MEL-5) | GI50 (SNB-75) | GI50 (OVCAR-3) | GI50 (NCI-H522) | GI50 (CCRF-CEM) | GI50 (ACHN) | GI50 (SR) | GI50 (M14) | GI50 (OVCAR-5) | GI50 (NCI-H23) | GI50 (HOP-92) | GI50 (SF-295) |
| --- | --- | --- | --- | --- | --- | --- | --- | --- | --- | --- | --- | --- | --- | --- | --- | --- | --- |
| Cc1ccc(S(=O)(=O)NC2(C=O)CCCC3CCCCC32)cc1 (stereo unspecified) | > 100 µM (inactive) | > 100 µM (inactive) | > 100 µM (inactive) | > 100 µM (inactive) | > 100 µM (inactive) | > 100 µM (inactive) | > 100 µM (inactive) | > 100 µM (inactive) | > 100 µM (inactive) | > 100 µM (inactive) | > 100 µM (inactive) | > 100 µM (inactive) | > 100 µM (inactive) |  |  |  |  |
| CC1=C(C(=O)Nc2cccc(C(F)(F)F)c2)C(c2ccc(O)cc2)C(C(=O)Nc2cccc(C(F)(F)F)c2)=C(C)N1 | 7.35 µM (inactive) | 25.8 µM (inactive) | 17.7 µM (inactive) | 15.1 µM (inactive) | 19.4 µM (inactive) | 16.9 µM (inactive) | 17.2 µM (inactive) | 15.7 µM (inactive) | 15.5 µM (inactive) | 13.6 µM (inactive) | 20.3 µM (inactive) |  | 14.9 µM (inactive) | 24.9 µM (inactive) | 16.1 µM (inactive) | 11.5 µM (inactive) | 20.5 µM (inactive) |
| Oc1nc(CC(O)c2ccc(Cl)c(Cl)c2)cc(-c2ccccc2)n1 (stereo unspecified) |  | 46.8 µM (inactive) | 36.1 µM (inactive) | 25.1 µM (inactive) | > 100 µM (inactive) | 37.8 µM (inactive) | 33 µM (inactive) | 48.8 µM (inactive) | 22.6 µM (inactive) | 30.1 µM (inactive) | > 100 µM (inactive) |  | 91 µM (inactive) | 11.2 µM (inactive) | 71.9 µM (inactive) | 82.8 µM (inactive) | 53.7 µM (inactive) |
| COC(=O)c1ccc(/C=C/S(=O)(=O)c2ccccc2)cc1 | > 100 µM (inactive) | > 100 µM (inactive) | > 100 µM (inactive) | > 100 µM (inactive) | > 100 µM (inactive) | > 100 µM (inactive) | 67.6 µM (inactive) | > 100 µM (inactive) | 83.9 µM (inactive) | > 100 µM (inactive) | > 100 µM (inactive) |  | > 100 µM (inactive) | > 100 µM (inactive) | > 100 µM (inactive) | > 100 µM (inactive) | > 100 µM (inactive) |
| Cc1ccc(C2[C@H]3C(=O)N(c4ccc(Cc5ccc(N6C(=O)[C@@H]7ON(c8ccccc8)C(c8ccc(C)cc8)[C@@H]7C6=O)cc5)cc4)C(=O)[C@H]3ON2c2ccccc2)cc1 (stereo partly specified) | > 100 µM (inactive) | > 100 µM (inactive) | > 100 µM (inactive) | > 100 µM (inactive) | > 100 µM (inactive) | > 100 µM (inactive) | 99.8 µM (inactive) | > 100 µM (inactive) |  | > 100 µM (inactive) | > 100 µM (inactive) |  | 91.6 µM (inactive) | > 100 µM (inactive) | > 100 µM (inactive) | > 100 µM (inactive) | > 100 µM (inactive) |
| O=C1NC(=O)C(C(=O)C(=O)Nc2cc(Cl)ccc2Cl)C(=O)N1 | > 100 µM (inactive) | > 100 µM (inactive) | > 100 µM (inactive) | > 100 µM (inactive) | > 100 µM (inactive) | > 100 µM (inactive) | 83.2 µM (inactive) | > 100 µM (inactive) | > 100 µM (inactive) | > 100 µM (inactive) | > 100 µM (inactive) |  | > 100 µM (inactive) | > 100 µM (inactive) | > 100 µM (inactive) | 91.8 µM (inactive) | > 100 µM (inactive) |
| COC(=O)C1=C(C)N(NC(=O)Nc2ccccc2)C2(N)N(NC(=O)Nc3ccccc3)C(C)=C(C(=O)OC)C12C(=O)OC (stereo unspecified) | 26.8 µM (inactive) | 84.5 µM (inactive) | 16.4 µM (inactive) |  | 63.4 µM (inactive) |  | 36.1 µM (inactive) | 54.2 µM (inactive) | 32.3 µM (inactive) | 35.2 µM (inactive) | 98.2 µM (inactive) |  | 47.5 µM (inactive) | > 100 µM (inactive) | > 100 µM (inactive) | > 100 µM (inactive) |  |
| O=C(Nc1ccccc1SC(/C=C/NNC1=NN=C(c2ccccc2)C(c2ccccc2)N1)c1ccccc1)c1ccc(Cl)cc1Cl (stereo unspecified) | 58.6 µM (inactive) | > 100 µM (inactive) | > 100 µM (inactive) | 35.6 µM (inactive) | > 100 µM (inactive) | 42.8 µM (inactive) | 52.4 µM (inactive) | 44.5 µM (inactive) | > 100 µM (inactive) | 48.8 µM (inactive) | 82.8 µM (inactive) |  |  | 44.8 µM (inactive) | 22.8 µM (inactive) |  | 25.6 µM (inactive) |
| CC(=O)O[C@]12CCCCC1C1(O)C(O)CCCC[C@H]12 (stereo partly specified) | > 100 µM (inactive) | > 100 µM (inactive) | > 100 µM (inactive) | > 100 µM (inactive) | > 100 µM (inactive) | > 100 µM (inactive) | 29.6 µM (inactive) |  | > 100 µM (inactive) | > 100 µM (inactive) | > 100 µM (inactive) | > 100 µM (inactive) | > 100 µM (inactive) |  | > 100 µM (inactive) |  | > 100 µM (inactive) |
| O=C1c2ccccc2C(=O)N1CCN(CCN1C(=O)c2ccccc2C1=O)Cn1cccn1 | 29.2 µM (inactive) |  | > 100 µM (inactive) | 27.4 µM (inactive) | 41.8 µM (inactive) | > 100 µM (inactive) | 87.3 µM (inactive) | > 100 µM (inactive) | > 100 µM (inactive) | 32.7 µM (inactive) | > 100 µM (inactive) |  | > 100 µM (inactive) |  |  | > 100 µM (inactive) | > 100 µM (inactive) |
| CCC1(CN(C)C)CC/C(=C\c2ccc3c(c2)OCO3)C1=O (stereo unspecified) | 40.7 µM (inactive) | > 100 µM (inactive) | > 100 µM (inactive) | 11.4 µM (inactive) | > 100 µM (inactive) | 62.5 µM (inactive) | > 100 µM (inactive) | > 100 µM (inactive) | 49.9 µM (inactive) | 48.6 µM (inactive) | > 100 µM (inactive) |  | > 100 µM (inactive) | > 100 µM (inactive) | > 100 µM (inactive) | > 100 µM (inactive) | > 100 µM (inactive) |
| Cc1cc(NS(=O)(=O)c2ccc(Nc3c4ccccc4nc4c(C(=O)NCCN(C)C)cccc34)cc2)no1 |  |  |  | 0.152 µM (active) | 2.52 µM (inactive) | 2.49 µM (inactive) | 4.09 µM (inactive) |  | 0.813 µM (active) | 1.08 µM (active) | 3.71 µM (inactive) | 0.272 µM (active) | 5.08 µM (inactive) | 17.9 µM (inactive) | 4.46 µM (inactive) |  | 8.38 µM (inactive) |
| CC1C=C[C@H](Sc2ccccc2)CC[C@@]1(C)O (stereo partly specified) | 57.3 µM (inactive) | > 100 µM (inactive) | > 100 µM (inactive) | 33.6 µM (inactive) | > 100 µM (inactive) | 59.4 µM (inactive) | 97.1 µM (inactive) |  |  | 34.7 µM (inactive) | > 100 µM (inactive) |  | > 100 µM (inactive) | > 100 µM (inactive) | 70.5 µM (inactive) | 40.5 µM (inactive) |  |
